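Tested at 5 concentrations; 48 h exposure; 96-well plates; endpoints linearly interpolated, else capped at highest concentration. GI50 = concentration required for 50% inhibition of growth. At the TGI there is no net growth.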
Experiments:
Experiment in all cases: NCI tumour cell line growth inhibition, 48 h
EKVX NSCLC = tested on: EKVX NSCLC
SF-295 CNS = tested on: SF-295 CNS
K-562 leukemia = tested on: K-562 leukemia
NCI-H226 lung = tested on: NCI-H226 lung
NCI-H522 lung = tested on: NCI-H522 lung
T-47D breast = tested on: T-47D breast
U251 CNS = tested on: U251 CNS
SK-MEL-5 melanoma = tested on: SK-MEL-5 melanoma
SK-MEL-2 melanoma = tested on: SK-MEL-2 melanoma
PC-3 prostate = tested on: PC-3 prostate
COLO 205 colon = tested on: COLO 205 colon
786-0 renal = tested on: 786-0 renal
HOP-62 NSCLC = tested on: HOP-62 NSCLC
HT29 colon = tested on: HT29 colon
SF-539 CNS = tested on: SF-539 CNS
MDA-MB-231 breast = tested on: MDA-MB-231 breast
OVCAR-8 ovarian = tested on: OVCAR-8 ovarian
HOP-92 NSCLC = tested on: HOP-92 NSCLC
CAKI-1 renal = tested on: CAKI-1 renal
OVCAR-3 ovarian = tested on: OVCAR-3 ovarian
HCT-116 colon = tested on: HCT-116 colon
MDA-MB-435 = tested on: MDA-MB-435
MOLT-4 leukemia = tested on: MOLT-4 leukemia
HCC-2998 colon = tested on: HCC-2998 colon
OVCAR-5 ovarian = tested on: OVCAR-5 ovarian

For `COc1cc(/C=C2\C[C@H]3[C@@H]4CC=C5C[C@@H](O)CC[C@]5(C)[C@H]4CC[C@]3(C)[C@H]2O)ccc1OCCN1CCCC1`, the GI50 (EKVX NSCLC) was 0.104 µM, the TGI (EKVX NSCLC) was 7.38 µM and the GI50 (SF-295 CNS) was 13.6 µM. The TGI (SF-295 CNS) was 37 µM, the GI50 (K-562 leukemia) was 6.86 µM and the TGI (K-562 leukemia) was 16.5 µM. The GI50 (NCI-H226 lung) was 9.55 µM, the TGI (NCI-H226 lung) was 22.3 µM and the GI50 (NCI-H522 lung) was 18 µM. For the same molecule, the TGI (NCI-H522 lung) was greater than 50 µM, the GI50 (T-47D breast) was 19.9 µM and the TGI (T-47D breast) was greater than 50 µM. For the same molecule, the GI50 (U251 CNS) was 12.8 µM, the TGI (U251 CNS) was 40.4 µM and the GI50 (SK-MEL-5 melanoma) was 9.58 µM. For the same molecule, the TGI (SK-MEL-5 melanoma) was 23.6 µM, the GI50 (SK-MEL-2 melanoma) was 16.4 µM and the TGI (SK-MEL-2 melanoma) was greater than 50 µM. For the same molecule, the GI50 (PC-3 prostate) was 7.4 µM, the TGI (PC-3 prostate) was 15.1 µM and the GI50 (COLO 205 colon) was 12.9 µM. The TGI (COLO 205 colon) was greater than 50 µM, the GI50 (786-0 renal) was 6.16 µM and the TGI (786-0 renal) was 16 µM. The GI50 (HOP-62 NSCLC) was 9.67 µM, the TGI (HOP-62 NSCLC) was 20.8 µM and the GI50 (HT29 colon) was 13.2 µM. For the same molecule, the TGI (HT29 colon) was greater than 50 µM, the GI50 (SF-539 CNS) was 8.28 µM and the TGI (SF-539 CNS) was 17.6 µM. For the same molecule, the GI50 (MDA-MB-231 breast) was 11.7 µM, the TGI (MDA-MB-231 breast) was 23 µM and the GI50 (OVCAR-8 ovarian) was 13.5 µM. It also gave a TGI (OVCAR-8 ovarian) of 27.2 µM, a GI50 (HOP-92 NSCLC) of 8.26 µM and a TGI (HOP-92 NSCLC) of 17.1 µM. It also gave a GI50 (CAKI-1 renal) of 10.2 µM, a TGI (CAKI-1 renal) of 22.1 µM and a GI50 (OVCAR-3 ovarian) of 15.4 µM. It also gave a TGI (OVCAR-3 ovarian) of 32 µM, a GI50 (HCT-116 colon) of 8.27 µM and a TGI (HCT-116 colon) of 24.8 µM. For the same molecule, the GI50 (MDA-MB-435) was 10.7 µM, the TGI (MDA-MB-435) was 28.2 µM and the GI50 (MOLT-4 leukemia) was 2.46 µM. For the same molecule, the TGI (MOLT-4 leukemia) was 11.3 µM, the GI50 (HCC-2998 colon) was 10.1 µM and the TGI (HCC-2998 colon) was 20.6 µM. For the same molecule, the GI50 (OVCAR-5 ovarian) was 8.57 µM and the TGI (OVCAR-5 ovarian) was 19.8 µM.

Reference: PubChem BioAssay (NCI)
